Literature values in patent publication US20200069777A1, “ANTIMICROBIAL COMPOSITIONS AND FORMULATIONS” (Matoke Holdings Limited, priority 2016, published 2020).

Conditions: 20° C. and 1 atm

solubility: 90 g/100 g water
Compound: O=C[C@H](O)[C@@H](O)[C@H](O)[C@H](O)CO [Glucose]
